Source: patent US20100055111A1, “INDOLEAMINE 2,3-DIOXYGENASE, PD-1/PD-L PATHWAYS, AND CTLA4 PATHWAYS IN THE ACTIVATION OF REGULATORY T CELLS” (Med. College of Georgia Research Institute, Inc., priority 2007, published 2010)
“Also recorded” adds a separate entry of the source.

Experiments:
Tregs [1] = assay: Mixed co-cultures with bystander A1 cells; format: cell-based, mouse
Description: A1 T cells and CBA DCs were added directly to the Treg pre-activation assay at the start of culture. Thus, the combined cultures comprised IDO^+ pDCs, OT-I T cells, Tregs, A1 T cells, CBA splenic DCs, and feeder layer. […] However, the mixed co-cultures addressed the specific question of whether IDO and activated Tregs could produce effective levels of suppression rapidly enough that they could suppress the bystander A1 cells before they could begin dividing. […] In each case, parallel titrations were performed with or without the addition of anti-CD3 mAb. […] In the absence of Tregs there was substantial proliferation of T cells in co-cultures, despite the presence of IDO^+ pDCs. However, the addition of fewer than 5000 Tregs was sufficient to suppress proliferation of all cells in culture. […] Thus, the results of the mixed co-culture model were similar to those using the separate pre-activation and re-sorting step.
In FIG. 12A, mixed co-cultures were established as in FIG. 11, comprising Treg activation cultures (IDO^+ pDCs, OT-I cells, Tregs, and feeder layer) plus the direct addition of CFSE-labeled CD4^+ sorted A1 T cells plus CBA DCs plus HY peptide. After 2-3 days the mixed co-cultures were harvested and stained for CD25 versus CFSE. […] In FIG. 12B, IDO-activated Tregs were sorted as described in FIG. 2 and added to readout assays of A1 cells plus CBA DCs plus HY peptide. […]

Tregs [2] = assay: DC adoptive transfer; format: in vivo, mouse; conditions: recipient mice treated with sustained-release 1MT pellets 5 mg/day; Tregs sorted after 4 days
Text: DC adoptive transfer. […] Briefly, total CD11c^+ DCs were sorted from TDLNs, pulsed with […] peptide (SEQ ID NO:1), and 5×10^4 DCs injected subcutaneously into each anteriomedial thigh of recipient mice. Recipients had been pre-loaded one day before DC injection with 5×10^6 sorted CD8^+ OT-I cells. After four days, the inguinal LNs draining the site of DC injection were removed, and CD4^+CD25^+ Tregs were isolated by cell sorting.
IDO^+ DCs from TDLNs activate Tregs in vivo. To test the hypothesis that Treg activation in TDLNs might be related to the presence of IDO-expressing DCs, the DC population (CD11c^+ cells) from TDLNs was isolated and transferred to new, non-tumor-bearing hosts. […] Four days after DC transfer, host Tregs were sorted from LNs draining the site of DC injection and tested for suppressor activity. […] Thus, the DC fraction from TDLNs, by itself, was sufficient to activate resting Tregs in new hosts, in an IDO-dependent fashion.

Tregs [3] = assay: Treg activation culture and readout assays (agent in pre-activation step); format: cell-based, mouse; conditions: for IDO-induced Treg activation (suppressor activity of re-sorted Tregs in readout assays): agent added to activation (pre-activation) cultures with TDLN pDCs + OT-I + feeder cells, 1MT 200 uM, anti-CTLA4 10 ug/ml, tryptophan 250 uM, readout A1 T cells + CBA DCs
Description: Treg activation culture and readout assays. […] The pDC fraction (CD11c^+B220^+) was sorted from 2-6 pooled TDLNs (day 7-11 of tumor growth) and collected in medium on ice. […] […] […] After two days, cultures were harvested, stained for CD4, and Tregs isolated by sorting for CD4^+ cells. […] Re-sorted Tregs were added to readout assays containing 1×10^5 A1 cells, 2×10^3 CD11c^+ DCs from CBA spleen (or 5×10^4 B cells, as CD11c^NEG B220^+ spleen cells), plus H-Y peptide. For assays performed in transwells, Multiwell 96-well insert plates (1 uM pore size, BD-Falcon) were used and the number of cells in all groups was doubled.
Feeder layer. […] As a feeder layer we added T cell-depleted spleen cells (1×10^5 sorted CD4^NEGCD8^NEG cells) to all assays.
Resting Tregs, from spleens of mice without tumors, were co-cultured with IDO^+ DCs from TDLNs, then re-sorted and transferred to readout assays (A1 T cells+CBA DCs) to measure suppression. […] Co-cultures also contained a feeder layer of T-depleted spleen cells as described in the Methods section. After 30-48 hours, co-cultures were harvested and the Tregs recovered by sorting for CD4^+ cells. Since the Tregs were the only CD4^+ cells in the co-cultures, they could be unambiguously recovered.

Tregs in TDLNs = conditions: sustained-release 1MT throughout tumor growth
Description: Recombinant mouse IL-2 (R&D Systems) was used at 10 ng/ml.
Tregs from day seven TDLNs were sorted and added to readout assays (A1 T cells plus CBA DCs), with and without PD-1/PD-L blocking antibodies. […] Tregs from day seven tumors were tested in readout assays as above, with added isotype, PD-1/PD-L blocking antibodies, or a combination of anti-PD-1/PD-L plus IL-2 plus anti-IL-10/TGF-β antibodies.

CHOP = assay: Intracellular staining for CHOP in Treg activation cultures; format: cell-based, mouse; conditions: 2 days
Description: (§1) FACS staining. Antibodies were from BD-Pharmingen unless otherwise noted. Anti-mouse CD25-APC conjugate (clone PC61, cat. #17-0251-81) was from eBioscience; this conjugate gave brighter signal and better separation of CD25^+ cells than other conjugates from other suppliers. For intracellular staining of CHOP, live cells were first blocked for 10 minutes with mouse Fc Block (BD Pharmingen) in 10% fetal calf serum medium, stained with anti-CD4-FITC for 30 minutes on ice, washed with PBS, then fixed and permeablized for 20 minutes in 250 μl Cytoperm/Cytofix solution (BD Pharmingen) on ice. All subsequent staining and wash steps were in BD Permwash solution. Fixed cells were stained with 1:100 dilution of monoclonal anti-gadd153/CHOP (sc-7351, Santa Cruz Biotechnology), washed, and stained with secondary monoclonal rat anti-mouse-IgG1-PE (#550083, BD Biosciences). […] For Foxp3 staining, anti-Foxp3-PE antibody (clone FJK-16s) was obtained from eBioscience and used per the manufacturer's protocol. For Foxp3 staining, assays omitted A1 bystander cells and Tregs were identified by CD4 expression, as for CHOP staining. Biotinylated anti-PD-L1 (clone MIH5) and anti-PD-L2 (clone TY25) were purchased from eBioscience.
GCN2-kinase is required for Treg activation. […] Treg activation cultures were set up as in FIG. 2, and CHOP expression measured by intracellular staining after two days.

Lewis Lung carcinoma = conditions: Friberg et al., 2002; cited from earlier work
PD-L1 and PD-L2 = PD-L1 and PD-L2 staining of DCs in readout assays; format: cell-based, mouse; conditions: Tregs from pre-activation cultures in which IDO was blocked with 1MT
Description: as §1, with “For Foxp3 staining, assays omitted A1 bystander cells and Tregs were identified by CD4 expression, as for CHOP staining. Biotinylated anti-PD-L1 (clone MIH5) and anti-PD-L2 (clone TY25) were purchased from eBioscience.” left out
After 24 hours, cultures were harvested and stained for PD-L1 and PD-L2 relative to CD11c. […] In FIG. 3D, IDO-activated Tregs (1×10^4/well) and anti-CD3/IL-2-activated Tregs (2×10^4/well) were prepared as in the previous panel, and added to readout assays with or without recombinant IL-2, anti-IL-10 plus anti-TGF-β blocking antibodies (100 μg/ml each), or PD-1/PD-L blocking antibodies. […]

TDLN cells = format: in vivo, mouse
Foxp3 = Foxp3 upregulation in naive CD4+CD25NEG A1 T cells in cocultures with IDO+ pDCs; format: cell-based, mouse
Description: FACS staining. Antibodies were from BD-Pharmingen unless otherwise noted. […] For intracellular staining of CHOP, live cells were first blocked for 10 minutes with mouse Fc Block (BD Pharmingen) in 10% fetal calf serum medium, stained with anti-CD4-FITC for 30 minutes on ice, washed with PBS, then fixed and permeablized for 20 minutes in 250 μl Cytoperm/Cytofix solution (BD Pharmingen) on ice. All subsequent staining and wash steps were in BD Permwash solution. […] For Foxp3 staining, assays omitted A1 bystander cells and Tregs were identified by CD4 expression, as for CHOP staining.
Therefore, whether IDO would induce naive CD4+ cells to differentiate into Foxp3^+ cells in this system was studied. Cocultures were set up as shown for FIG. 6A, comprising IDO^+ pDCs, OT-I, feeder cells, mature Tregs (Thy1.1 congenic), plus a population of CD4^+CD25^NEG T cells (naive male-specific A1 T cells isolated from female mice). CBA splenic DCs were also added to serve as APCs for the A1 cells. After two days, co-cultures were harvested and stained for intracellular Foxp3.

OT-I cells in TDLNs = assay: CFSE labeling and T cell adoptive transfer; format: in vivo, mouse; conditions: B16-OVA tumors, 4 days after transfer
Text: CFSE labeling and T cell adoptive transfer. Mice were implanted with B16-OVA tumors. […] After four days, the TDLNs and contralateral LNs (CLN) were harvested and stained for 1B11 (BD-Pharmingen) vs. CD8.

P815 = conditions: Uyttenhove et al., 2003; concomitant administration of 1-MT; cited from earlier work
anti-CD3-activated Tregs = assay: Readout assays: suppression by anti-CD3/IL-2-activated Tregs; format: cell-based, mouse; conditions: agent added to readout assay
Description: Treg activation culture and readout assays. […] The pDC fraction (CD11c^+B220^+) was sorted from 2-6 pooled TDLNs (day 7-11 of tumor growth) and collected in medium on ice. Pre-activation cultures contained 2×10^3 pDCs, 1×10^5 sorted CD8^+ OT-I cells, 100 nM […] peptide (SEQ ID NO:1), and 5×10^3 sorted CD4^+CD25^+ Tregs from spleens of B6 mice without tumors. All cultures received a feeder layer of 1×10^5 T cell-depleted spleen cells (CD4^NEGCD8^NEG), as described below. […] After two days, cultures were harvested, stained for CD4, and Tregs isolated by sorting for CD4^+ cells. […] Re-sorted Tregs were added to readout assays containing 1×10^5 A1 cells, 2×10^3 CD11c^+ DCs from CBA spleen (or 5×10^4 B cells, as CD11c^NEG B220^+ spleen cells), plus H-Y peptide. For assays performed in transwells, Multiwell 96-well insert plates (1 uM pore size, BD-Falcon) were used and the number of cells in all groups was doubled.
After 24 hours, cultures were harvested and stained for PD-L1 and PD-L2 relative to CD11c. […] In FIG. 3D, IDO-activated Tregs (1×10^4/well) and anti-CD3/IL-2-activated Tregs (2×10^4/well) were prepared as in the previous panel, and added to readout assays with or without recombinant IL-2, anti-IL-10 plus anti-TGF-β blocking antibodies (100 μg/ml each), or PD-1/PD-L blocking antibodies. Bars show SD for replicate wells in one of four similar experiments; *p<0.01 by ANOVA.

IDO-activated Tregs = assay: Readout assays: suppression of A1 T cell proliferation by IDO-activated Tregs (agent in readout assay); format: cell-based, mouse; conditions: agent added to readout assay (A1 T cells + wild-type CBA DCs); antibodies 50 ug/ml each
Description: Treg activation culture and readout assays. […] The pDC fraction (CD11c^+B220^+) was sorted from 2-6 pooled TDLNs (day 7-11 of tumor growth) and collected in medium on ice. […] All cultures received a feeder layer of 1×10^5 T cell-depleted spleen cells (CD4^NEGCD8^NEG), as described below. […] After two days, cultures were harvested, stained for CD4, and Tregs isolated by sorting for CD4^+ cells. […] Re-sorted Tregs were added to readout assays containing 1×10^5 A1 cells, 2×10^3 CD11c^+ DCs from CBA spleen (or 5×10^4 B cells, as CD11c^NEG B220^+ spleen cells), plus H-Y peptide. For assays performed in transwells, Multiwell 96-well insert plates (1 uM pore size, BD-Falcon) were used and the number of cells in all groups was doubled.

Molecule: Cn1cc(C[C@@H](N)C(=O)O)c2ccccc21 [1MT, 1-methyl-D-tryptophan]
- suppressor activity of Tregs in mixed co-cultures (Tregs [1]; IDO blocked by 1MT, 10-fold more Tregs, absence of anti-CD3 mAb): no spontaneous suppressor activity
- division of A1CFSE cells in mixed co-cultures (Tregs [1]; plus 1MT, 2-3 days): able to divide
- activation of host Tregs by DCs from TDLNs (Tregs [2]): blocked
- IDO-induced Treg activation (suppressor activity of re-sorted Tregs in readout assays) (Tregs [3]): no suppressor activity; also recorded: complete abrogation of activation; also recorded: minimal suppression; also recorded: completely abolished
- Treg activation (Tregs [3]; feeder layer replaced by recombinant cytokines (IFNα + IL-10 + TGF-β1)): abrogated
- PD-1/PD-L-dependent type of Treg activity in TDLNs (Tregs in TDLNs): none
- CHOP expression in OT-I cells (CHOP): abrogated
- CHOP induction in Tregs (CHOP; anti-Ia^b 100 ug/ml): prevented
- tumor outgrowth (Lewis Lung carcinoma): significantly delayed
- PD-ligand expression by DCs in readout assays (PD-L1 and PD-L2): low
- suppression by TDLN cells of untreated control mice (TDLN cells; 1MT added to the readout assays): not affected
- cell division of A1 cells (CFSE) (Foxp3; CFSE-labeled A1 and OT-I cells): divided
- upregulation of Foxp3 in A1 cells (Foxp3; with H-Y peptide, 2 days): prevented
- 1B11 activation marker on OT-I in TDLNs (OT-I cells in TDLNs; oral 1MT 2 mg/ml in drinking water): uniformly upregulate
- cell division of OT-I in TDLNs (CFSE) (OT-I cells in TDLNs; oral 1MT): not able to undergo extensive cell division
- effect of IDO transfection of P815 on tumor growth in pre-immunized hosts (P815): substantially reversed

Molecule: O=P1(N(CCCl)CCCl)NCCCO1 (centres unmarked) [cyclophosphamide]
- suppressor activity of TDLN cells after in vivo treatment (TDLN cells; B78H1-GMCSF tumors treated day 11, CY 150 mg/kg, 1MT pellets, TDLN cells 7 days later, readout BM3 T cells + B6 splenocytes): only slightly

Molecule: N[C@@H](Cc1c[nH]c2ccccc12)C(=O)O [tryptophan]
- IDO-induced Treg activation (suppressor activity of re-sorted Tregs in readout assays) (Tregs [3]): blocked

B1: recombinant IL-2: Recombinant mouse IL-2 (R&D Systems), used at 10 ng/ml (protein, UniProt P04351 21-169, looked up)
Interleukin-2: APTSSSTSSSTAEAQQQQQQQQQQQQHLEQLLMDLQELLSRMENYRNLKLPRMLTFKFYLPKQATELKDLQCLEDELGPLRHVLDLTQSKSFQLEDAENFISNIRVTVVKLKGSDNTFECQFDDESATVVDFLRRWIAFCQSIISTSPQ
- suppression by anti-CD3-activated Tregs (anti-CD3-activated Tregs): fully reversed
- suppression of T cell proliferation by IDO-activated Tregs (IDO-activated Tregs): no effect
